Reference: ChEMBL document CHEMBL1147368, “Constituents of Fevillea cordifolia: New Norcucurbitacin and Cucurbitacin Glycosides” (1993)

Experiments:
Format in all cases: functional
Rattus norvegicus [1] = experiment: Antiinflammatory activity in rat assessed as inhibition of carrageenan-induced paw edema at 100 mg/kg, po
Rattus norvegicus [2] = experiment: Antiinflammatory activity in rat assessed as inhibition of carrageenan-induced paw edema at 0.125 mg/kg, po
Rattus norvegicus [3] = experiment: Antiinflammatory activity in rat assessed as inhibition of carrageenan-induced paw edema at 2 mg/kg, po

Work on `CC(=O)Oc1ccccc1C(=O)O` [ASPIRIN] yielded an inhibition in vivo at 100 mg/kg (Rattus norvegicus [1]) of 44%.
`C[C@H]1C[C@H]2[C@@H]3CCC4=CC(=O)C=C[C@]4(C)[C@@]3(F)[C@@H](O)C[C@]2(C)[C@@]1(O)C(=O)CO` [BETAMETHASONE] was tested, and the inhibition in vivo at 0.125 mg/kg (Rattus norvegicus [2]) was 63%.
`COc1ccc2c(c1)c(CC(=O)O)c(C)n2C(=O)c1ccc(Cl)cc1` [INDOMETHACIN] showed an inhibition in vivo at 2 mg/kg (Rattus norvegicus [3]) of 47%.
